Measurements taken from patent publication US20260027096A1, “PHD INHIBITORS” (Oxford University Innovation Limited, priority 2023, published 2026).
“Also recorded” adds a separate entry of the source.

Tests used:
Assay type in all cases: cell-based
[1] = tested on: mouse iMLL-AF9- and Meis1Hoxa9-transformed AML cells; assay: Proliferation and apoptosis of murine iMLL-AF9 and Meis1Hoxa9 AML cells; conditions: 50 μM
Text: (§1) Viable cells were counted by trypan blue exclusion at the indicated time points. To analyse cells undergoing apoptosis, cells were suspended in binding buffer containing PE-conjugated Annexin-V or FITC-conjugated Annexin-V, and either PI or DAPI.
(§2) To determine consequences of Daprodustat (2) and IOX5 (68, example 46) treatment on AML cells driven by the MLL-AF9→MEIS1/HOXA9 axis, mouse iMLL-AF9-and Meis1Hoxa9-transformed AML cells were employed, as well as human THP-1 cells, which harbour the MIL-AF9 translocation. […] Thus, providing compelling evidence that PHD inhibition compromises AML cells driven by the MLL-AF9→MEIS1/HOXA9 axis.

[2] = tested on: HIF-1α in MOLM13, OCI-AML3, MV411 and THP-1 cells; assay: Western blot of HIF-1α in human AML cell lines; conditions: for HIF-1α protein level (immunoblot): human AML cell lines, 50 μM, 48 hrs
Procedure: Total protein extracts (45 μg) were subjected to SDS-PAGE (NuPAGE™ 4-12% Bis-Tris Plus Gel, ThermoFisher Scientific, NP0323BOX) and then transferred onto a polyvinylidene difluoride membranes using wet transfer. Membranes were blocked in 5% milk-TBST (TBS with 0.1% Tween20) and probed with anti-HIF1-α (Novus Biological, NB100-105, 1:1000, ON at 4° C.) and anti-β-actin (Cell Signalling Technology, #3700, 1:10 000, ON at 4° C.). After incubation with appropriate horseradish peroxidase- coupled secondary antibody (Cell Signalling Technology, Anti-mouse IgG, #7076, 1:2000, 2 h at room temperature), proteins were detected with Clarity Western ECL Substrate (BioRad, #1705061) and acquired on the Amersham Imager 600 (GE Healthcare Life Sciences).
Equipped with currently available PHD inhibitors and newly generated IOX5 (68, example 46), the impact of pharmacological PHD inhibition on AML cells was assessed. […] Thus, while PHD inhibition consistently stabilises HIF-1α protein across all tested AML cell lines, HIF-2α stabilisation is variable and cell line-specific.

[3] = tested on: human THP-1 cells; assay: Proliferation and apoptosis of THP-1 cells; conditions: THP-1, 50 μM
Text: as §1, §2

[4] = tested on: primary human AML cells (patient samples); assay: Apoptosis of primary human AML patient samples; conditions: 50 μM
Procedure: Frozen AML samples were retrieved from Barts Cancer Institute Biobank and quickly thawed at 37° C. Upon thawing, T cells were depleted from all samples using EasySep™ Human TCR Alpha/Beta Depletion Kit (Stem Cell Technologies, #17847). Enriched samples were plated in concentration 0.4-1.0×10^6/mL in Myelocult H5100 medium (Stem Cell Technologies, #05150) supplemented with 20 ng/ml IL-3, G-CSF and TPO (Biolegend) in co-culture with irradiated MS-5 cells and treated with 50 μM Dap, 50 μM IOX5 (68, example 46), 1 μM Venetoclax or vehicle control for 7 days. After 3 days of treatment, half the sample was used for plating CFU assays and initial analyses, the other half was given fresh medium containing the corresponding agent. After 7 days, viable cell numbers were counted, viability was assessed using Annexin V FITC/PI stain, cell cycle was measured using PI, and the expression of CD45, CD34, CD11b and CD14 was determined. CFC assays were counted 11 days after plating. Samples were deemed sensitive to treatment if either a decrease in viability or a decrease in proliferation, as validated by cell cycle phase distribution, was detected.
To investigate the clinical utility of PHD inhibition in human AML, it was next determined the impact of Dap or IOX5 (68, example 46) on AML patient samples (FIG. 29), focusing on poor-risk AML, which is characterised by a particularly low overall patient survival rate^73.
Finally, the clinical applicability of PHD inhibition in AML was validated by treating independent patient-derived primary AML cells with Daprodustat (2) and IOX5 (68, example 46). […] Taken together, Examples 163 to 167 provide genetic and pharmacological evidence that PHD inhibition is a plausible therapeutic strategy in AML.

[5] = tested on: BNIP3 mRNA in human AML cells; assay: qPCR of BNIP3 (BAX, BAK) in human AML cells; conditions: for BNIP3 mRNA expression: MOLM13, OCI-AML3, MV411 and THP-1 cells; for BNIP3, BAX and BAK transcripts (qPCR): MOLM-13 cells, 50 μM
Procedure: RNA was isolated using Direct-zol RNA Miniprep kit (Zymo Research, #R2051) and reverse transcribed using High-Capacity cDNA Reverse Transcription Kit (Applied Biosystems). For real-time quantitative PCR (qPCR), 5 ng of cDNA, 5 μL of PowerUp SYBR Green MasterMix (Applied Biosystems) and 2 pmol of primers were used per well of 384-well plate. Reactions were performed in triplicate using C1000 Thermocycler 384well (BioRad). Gene expression was quantified using comparative AA-Ct method and ACTB was used as the housekeeping gene. Data is expressed as log 2 fold change in comparison to control sample and represents results of three independent experiments measured in duplicate.
Given that the primary function of PHD2 is to promote HIF-α degradation, HIF-1α levels were measured following the treatment of AML cells with PHD inhibitors. […] To investigate whether HIF-α mediates the anti-leukaemic effects of PHD inhibition, Meis1/Hoxa9-transformed AML cells lacking both Hif1α and Hif2α and control cells were employed (Vukovic et al., 2015). […] Next, to investigate a molecular mechanism behind the anti-leukaemic effect of PHD inhibition, HIF-dependent transcripts that were dysregulated were interrogated via (68, example 46)-treatment in murine cells.

[6] = tested on: K562, OCI-AML3, KASUMI1, MV-4-11 and MOLM13 cells; assay: Proliferation and apoptosis of human leukaemic cell lines; conditions: 50 μM
Text: as §1
To examine the impact of PHD inhibition in human leukaemia cells with other mutational backgrounds, different myeloid leukaemia cells were used, namely K562 (CML, with BCR-ABL translocation), OCL-AML3 cells (AML with DNMT3A, NRAS and NPM1 mutations), KASUMI1 cells (AML with AML-ETO translocation), MV-4-11 (AML with FLT3-ITD mutation), and MOLM13 (AML with FLT3-ITD mutation and MLL-AF9 translocation). […] Thus, multiple potent PHD inhibitors, with distinct mode of action, compromise leukaemic cells independently from their mutational status.

O=C(O)CNC(=O)c1c(O)n(C2CCCCC2)c(=O)n(C2CCCCC2)c1=O [Daprodustat, daprodustat, reference compound]
apoptosis [1]: induced their apoptosis | proliferation [1]: compromised their proliferative capacity | HIF-1α protein level (immunoblot) [2]: strongly stabilised HIF-1a; also recorded: increased HIF-1α levels | apoptosis [3]: induced their apoptosis | proliferation [3]: compromised their proliferative capacity | apoptosis of primary human AML cells [4]: significantly increased primary human AML cell apoptosis | apoptosis of primary human AML cells ([4]; listed as Dap): clearly increased apoptosis | BNIP3 mRNA expression [5]: strongly induced BNIP3 expression | BNIP3, BAX and BAK transcripts (qPCR) [5]: upregulation of BNIP3 was found, as well as its downstream effectors BAX and BAK | apoptosis [6]: induced their apoptosis | proliferation [6]: consistently compromised the proliferation

O=C(NCC1CCC(C(F)(F)F)CC1)c1c[nH]c(-n2cccn2)cc1=O (stereo not shown) [IOX5]
apoptosis [1]: induced their apoptosis | proliferation [1]: compromised their proliferative capacity | HIF-1α protein level over time (western blot) ([2]; THP-1 cells, continuous treatment for 96 hours): substantially stabilised after 3-12 hours, its levels decreased between 24-48 hours, then increased 72-96 hours after treatment initiation | HIF-1α protein level (immunoblot) [2]: strongly stabilised HIF-1a; also recorded: increased HIF-1α levels | apoptosis [3]: induced their apoptosis | proliferation [3]: compromised their proliferative capacity | apoptosis of primary human AML cells [4]: clearly increased apoptosis; also recorded: significantly increased primary human AML cell apoptosis | BNIP3 mRNA expression [5]: strongly induced BNIP3 expression | BNIP3, BAX and BAK transcripts (qPCR) [5]: upregulation of BNIP3 was found, as well as its downstream effectors BAX and BAK | apoptosis [6]: induced their apoptosis | proliferation [6]: consistently compromised the proliferation
